Assay results published in patent US20110028503A1, “COMPOSITIONS AND METHODS FOR INHIBITION OF THE JAK PATHWAY” (RIGEL PHARMACEUTICALS, INC., priority 2009, published 2011).

Experiments:
Type in all cases: cell-based
[1] = test system: primary human T-cells (IL-2 stimulated proliferation; JAK1 and JAK3); test: Primary human T-cell proliferation assay stimulated with IL-2; details: IL-2, 72 hours, CellTiter-Glo ATP readout, read-out: Example 4 IC50 (primary human T-cell proliferation stimulated with IL-2)
From the text: In this assay, primary human T-cells derived from peripheral blood and pre-activated through stimulation of the T-cell receptor and CD28, proliferate in culture in response to the cytokine Interleukin-2 (IL-2). This proliferative response is dependent on the activation of JAK1 and JAK3 tyrosine kinases, which phosphorylate and activate the transcription factor Stat-5. […] A reduction in cell proliferation compared to control conditions is indicative of inhibition of the JAK kinase pathway. An exemplary assay of this type is described in greater detail below.
Primary human T-cells derived from peripheral blood and pre-activated through stimulation of the T-cell receptor and CD28, proliferate in vitro in response to the cytokine Interleukin-2 (IL-2). This proliferative response is dependent on the activation of JAK-1 and JAK-3 tyrosine kinases, which phosphorylate and activate the transcription factor Stat-5.
Human primary T cells were prepared as follows. […] The lymphocytes at the serum: ficoll interface were recovered and washed twice with 5 volumes of PBS. […]
Proliferation was measured using CellTiter-Glo® Luminescent Cell Viability Assay (Promega), which determines the number of viable cells in culture based on quantitation of the ATP present, as an indicator of metabolically active cells. […]

[2] = test system: human Ramos B cells stimulated with human IL-4 (JAK1 and JAK3 kinases, CD23 upregulation); test: Ramos B-cell line stimulated with IL-4 (CD23 upregulation, FACS); details: IL-4 50 units/mL, 20-24 hours, anti-CD23-PE FACS, read-out: Example 3 IC50 (Ramos B-cell line stimulated with IL-4, CD23)
Description: One means of assaying for JAK inhibition is detection of the effect of compounds I and II on the upregulation of downstream gene products. In the Ramos/IL4 assay, B-cells are stimulated with the cytokine Interleukin-4 (IL-4) leading to the activation of the JAK/Stat pathway through phosphorylation of the JAK family kinases, JAK1 and JAK3, which in turn phosphorylate and activate the transcription factor Stat-6. […] Twenty to 24 hours post stimulation, cells are stained for upregulation of CD23 and analyzed using flow cytometry (FACS). […] An exemplary assay of this type is described in greater detail below. B-cells stimulated with cytokine Interleukin-4 (IL-4) activate the JAK/Stat pathway through phosphorylation of the JAK family kinases, JAK-1 and JAK-3, which in turn phosphorylate and activate the transcription factor Stat-6. […] To study the effect of inhibitors on the JAK family kinases, human Ramos B cells are stimulated with human IL-4. The Ramos B-cell line was acquired from [NT] No. CRL-1596). The cells were cultured in RPMI 1640 (Cellgro, MediaTech, Inc., Herndon, Va., Cat No. 10-040-CM) with 10% fetal bovine serum (FBS), heat inactivated (JRH Biosciences, Inc, Lenexa, Kans., Cat No. 12106-500M) according to ATCC propagation protocol. […] Cells were then spun down and stained with anti-CD23-PE(BD Pharmingen, San Diego, Calif., Cat No. 555711) and analyzed by FACS. […]

[3] = test system: U937 human monocytic cells stimulated with IFNγ (ICAM-1 up-regulation, JAK/Stat pathway); test: U937 IFNγ ICAM1 FACS assay; details: U-937, IFNγ 10 ng/mL, 18-24 hours, ICAM-1 FACS, read-out: Example 6 IC50 (U937 IFNγ ICAM1 FACS assay)
Description: U937 human monocytic cells up-regulate ICAM-1 (CD54) surface expression in response to a variety of different stimuli. Therefore, using ICAM-1 expression as readout, compound effects on different signaling pathways can be assessed in the same cell type. IFNγ up-regulates ICAM-1 through activation of the JAK/Stat pathway. In this example, the up-regulation of ICAM-1 by IFNγ was assessed.
U937 cells were grown in 10% RPMI. The cells were then plated at a concentration of 100,000 cells per 160 μL in 96 well flat bottom plates. […] Then 4 μL of test compound was transferred to 76 μL of 10% RPMI resulting in a 10× solution (100 μM test compound, 5% DMSO). For control wells, 4 μL of DMSO was diluted into 76 μL 10% RPMI.
The assay was performed in duplicate with 8 points (8 3-fold dilution concentrations from […]) and with 4 wells of DMSO only (control wells) under stimulated conditions and 4 wells of DMSO only under unstimulated conditions.
The diluted compound plate was mixed 2× using a multimek (Beckman Coulter of Brea, Calif.) and then 20 μL of the diluted compounds was transferred to the 96 well plate containing 160 μL of cells, which were then mixed again twice at low speeds. The cells and compounds were then pre-incubated for 30 minutes at 37° C. with 5% CO2. […]
Both % live cells and ICAM-1 expression was analyzed. […]

IC50 [2]: 56 nM
IC50 [3]: 565 nM
Compound: C#CCOc1ccc(Nc2nc(Nc3ccc(C)c(S(N)(=O)=O)c3)ncc2F)cc1 [Compound I, N2-(3-Aminosulfonyl-4-methylphenyl)-5-fluoro-N4-[4-(prop-2-ynyloxy)phenyl]-2,4-pyrimidinediamine]
IC50 [1]: 181 nM
